Source: the NIST ThermoML archive (doi:10.1016/j.tca.2015.08.013)
Numbers after ± are expanded uncertainties.

Experiment: refractive index (Na D-line) (dimensionless)
Conditions: 101.33 kPa, Liquid, Standard Abbe refractometry

Compound	refractive index (283.15 K)	refractive index (285.65 K)	refractive index (288.15 K)	refractive index (290.65 K)	refractive index (293.15 K)	refractive index (295.65 K)	refractive index (298.15 K)	refractive index (300.65 K)	refractive index (303.15 K)	refractive index (305.65 K)	refractive index (308.15 K)	refractive index (310.65 K)	refractive index (313.15 K)	refractive index (315.65 K)	refractive index (318.15 K)	refractive index (320.65 K)	refractive index (323.15 K)	refractive index (325.65 K)	refractive index (328.15 K)	refractive index (330.65 K)	also measured
c1ccoc1 [furan]	1.42784 ± 0.00037	1.42625 ± 0.00037	1.42463 ± 0.00037	1.42303 ± 0.00037	1.42141 ± 0.00037	1.41979 ± 0.00037	1.41814 ± 0.00037	1.4165 ± 0.00037	1.41485 ± 0.00037	–	–	–	–	–	–	–	–	–	–	–	–
Cc1ccco1 [2-methylfuran]	1.43942 ± 0.00037	1.43794 ± 0.00037	1.43644 ± 0.00037	1.43495 ± 0.00037	1.43344 ± 0.00037	1.43194 ± 0.00037	1.43044 ± 0.00037	1.42893 ± 0.00037	1.42742 ± 0.00037	1.4259 ± 0.00037	1.4244 ± 0.00037	1.42289 ± 0.00037	1.42138 ± 0.00037	1.41984 ± 0.00037	1.41831 ± 0.00037	1.41675 ± 0.00037	1.41521 ± 0.00037	1.41366 ± 0.00037	1.41212 ± 0.00037	1.41059 ± 0.00037	refractive index (333.15 K): 1.40907 ± 0.00037; refractive index (335.65 K): 1.40747 ± 0.00037; refractive index (338.15 K): 1.40589 ± 0.00037
Cc1ccc(C)o1 [2,5-dimethylfuran]	1.4477 ± 0.00037	1.44645 ± 0.00037	1.44494 ± 0.00037	1.44362 ± 0.00037	1.44218 ± 0.00037	1.44079 ± 0.00037	1.43942 ± 0.00037	1.43796 ± 0.00037	1.43665 ± 0.00037	1.43513 ± 0.00037	1.43383 ± 0.00037	1.4323 ± 0.00037	1.43098 ± 0.00037	1.42947 ± 0.00037	1.42815 ± 0.00037	1.42664 ± 0.00037	1.42525 ± 0.00037	1.42381 ± 0.00037	1.42239 ± 0.00037	1.42098 ± 0.00037	refractive index (333.15 K): 1.41948 ± 0.00037; refractive index (335.65 K): 1.41815 ± 0.00037; refractive index (338.15 K): 1.41657 ± 0.00037
